Measured values from patent US12357624B2, “Low dose pridopidine for Parkinson's Disease and other diseases associated with parkinsonism” (PRILENIA NEUROTHERAPEUTICS LTD., priority 2019, dated 2025).

How the values were obtained:
[1] = tested on: STHdhQ7/7 cells expressing Htt96Q-mCherry or Htt20Q-mCherry; settings: cells without aggregates or cells expressing Htt20Q-mCherry
Excerpt: H2a-GFP was transiently co-expressed with Htt20Q-mCherry or Htt96Q-mCherry (exon 1) in STHdhQ7/7 cells. H2a-GFP aggregation is a marker of cell stress. […] For comparative purposes, 100% represents H2a-GFP relative intensity in untreated cells showing Htt96Q-mCherry aggregates, 0% is H2a-GFP relative intensity in untreated cells without Htt96Q-cherry aggregates.
ER stress levels can be measured using H2a-GFP as protein indicator of early stages of ER stress. H2a-GFP is a misfolded secretory protein which in response to ER stress accumulates. The STHdhQ7/7 is a striatal derived cell line from a knock in transgenic mouse containing homozygous humanized Huntingtin gene (HTT) with 7 polyglutamine repeats (wild type). STHdhQ7/7 cells are transfected with either Htt96Q-mCherry (mutant, mimics the typical pathogenic expression of Htt in HD patients) or Htt20Q-mCherry (normal) constructs. When the polyQ-expanded Htt protein (96Q) exonl fused to fluorescent mCherry protein is expressed, the levels and aggregation of the protein in individual cells can be monitored using a fluorescent microscope.

SOD1G93A motor neurons = settings: 0.1 and 1 μM; cited from earlier work

In the case of `CCCN1CCC(c2cccc(S(C)(=O)=O)c2)CC1` [pridopidine, 4-[3-(methylsulfonyl)phenyl]-1-propyl-piperidine], the H2a-GFP levels [1] is listed as “does not alter H2a-GFP levels” and the “BDNF axonal transport velocity” value (SOD1G93A motor neurons) is listed as “significantly accelerates the velocity”.
